Laboratory results reported in ChEMBL document CHEMBL3603826, “6-Arylpyrazine-2-carboxamides: A New Core for Trypanosoma brucei Inhibitors” (J Med Chem, 2015).
Converted amounts (≈) assume the structure as drawn.

Experiments:
[1] = test system: Trypanosoma brucei brucei; assay: Anti-parasitic activity against Trypanosoma brucei brucei 427 bloodstream parasites incubated for 48 hrs by alamar blue dye based assay; type: functional, organism-based; conditions: Trypanosoma brucei, 427, 48 h
[2] = Selectivity index, ratio of cytotoxic IC50 for HEK293 cells to EC50 for anti-parasitic activity against Trypanosoma brucei brucei 427 bloodstream parasites; type: toxicity, cell-based; conditions: human, read-out: Ratio IC50/EC50
[3] = Kinetic solubility in pH 2.0 0.01M HCl buffer by nephelometry; type: physicochemical; conditions: read-out: Kinetic_solubility
[4] = Partition coefficient, logD of the compound at pH 7.4 by HPLC method; type: physicochemical; conditions: octanol/water
[5] = molecular target: serum albumin (Homo sapiens, UniProt P02768); assay: Binding affinity to human serum albumin by chromatographic method; type: ADME; conditions: read-out: PB (converted)
[6] = Kinetic solubility in pH 6.5 phosphate buffer by nephelometry; type: physicochemical; conditions: read-out: Kinetic_solubility
[7] = Intrinsic clearance in human liver microsomes assessed per mg protein at pH 7.4 at 0.5 uM in presence of NADPH regenerating system by LC-MS method; type: ADME; conditions: read-out: CLH
[8] = Stability assessed as degradation half life; type: physicochemical
[9] = test system: Trypanosoma cruzi; assay: Anti-parasitic activity against Trypanosoma cruzi Tulahuen C2C4 trypomastigotes infected rat L6 cells incubated for 96 hrs by CPRG/nonidet substrate based […]; type: functional, organism-based; conditions: Tulahuen C2C4, L6, 96 h
[10] = Toxicity against rat L6 cells incubated for 70 hrs by alamar blue dye based assay; type: cell-based
[11] = test system: Trypanosoma brucei rhodesiense; assay: Anti-parasitic activity against Trypanosoma brucei rhodesiense STIB 900 trypomastigotes incubated for 70 hrs by alamar blue dye based assay; type: functional, organism-based; conditions: STIB 900, 70 h
[12] = test system: Leishmania donovani; assay: Anti-parasitic activity against Leishmania donovani MHOM/ET/67/L82 axenic amastigotes incubated for 70 hrs by alamar blue dye based assay; type: functional, organism-based; conditions: MHOM/ET/67/L82, 70 h
[13] = test system: Plasmodium falciparum; assay: Anti-parasitic activity against chloroquine and pyrimethamine resistant Plasmodium falciparum K1 erythrocytic stages infected in human erythrocytes incubated for 48 hrs by [3H]-hypoxanthine incorporation assay; type: functional, organism-based
[14] = Selectivity index, ratio of cytotoxic IC50 for rat L6 cells to EC50 for anti-parasitic activity against Trypanosoma brucei rhodesiense STIB 900; type: toxicity, cell-based; conditions: read-out: Ratio IC50/EC50

Chain of serum albumin (P02768 whole entry): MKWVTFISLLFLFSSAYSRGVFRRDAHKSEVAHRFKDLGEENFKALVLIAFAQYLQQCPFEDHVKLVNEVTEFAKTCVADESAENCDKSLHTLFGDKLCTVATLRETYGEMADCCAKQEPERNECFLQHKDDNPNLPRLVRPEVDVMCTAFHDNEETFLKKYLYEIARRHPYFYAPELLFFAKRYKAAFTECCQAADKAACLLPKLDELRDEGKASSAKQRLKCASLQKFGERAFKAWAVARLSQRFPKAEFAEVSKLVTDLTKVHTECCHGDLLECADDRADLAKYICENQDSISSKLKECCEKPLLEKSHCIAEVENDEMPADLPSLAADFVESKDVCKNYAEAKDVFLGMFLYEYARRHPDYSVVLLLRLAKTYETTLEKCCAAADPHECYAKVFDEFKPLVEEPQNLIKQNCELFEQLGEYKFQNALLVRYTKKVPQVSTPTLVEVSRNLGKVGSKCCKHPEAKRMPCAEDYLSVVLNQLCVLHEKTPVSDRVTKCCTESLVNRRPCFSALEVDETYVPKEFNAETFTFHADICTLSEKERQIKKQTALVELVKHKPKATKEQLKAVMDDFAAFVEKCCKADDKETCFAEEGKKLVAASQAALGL

| EC50 [1] [nM] | Structure (SMILES) | selectivity ratio [2] | also measured |
| --- | --- | --- | --- |
| 320 | CCC(CC)NC(=O)c1nc(-c2ccccc2)cnc1N | > 263 | solubility kinetic [3]: 6.3 µg/mL (≈ 22.2 µM); logD [4]: 4.3; fraction unbound [5]: 0.05; solubility kinetic [6]: 3.1 µg/mL (≈ 10.9 µM); microsomal CLint at 0.5 µM [7]: 133 µL/min/mg; half-life [8]: 13 min |
| 1100 | CCC(C)NC(=O)c1nc(-c2cccc(N)c2)cnc1N (configuration not stated) | > 77.8 | – |
| 3740 | CCC(C)NC(=O)c1nc(-c2ccc(C)cc2)cnc1N (configuration not stated) | 22 | – |
| 770 | CCC(CC)NC(=O)c1nc(-c2cc(C)cc(Cl)c2)cnc1N | 50 | – |
| 1300 | CCC(C)NC(=O)c1nc(-c2ccc(OC)cc2)cnc1N (configuration not stated) | > 63.9 | – |
| 410 | CCC(C)NC(=O)c1nc(-c2cccc(OC)c2)cnc1N (configuration not stated) | > 201 | – |
| 360 | CCC(CC)NC(=O)c1nc(-c2cccc(Cl)c2)cnc1N | 110 | – |
| 260 | CCC(CC)NC(=O)c1nc(-c2cccc(C(F)(F)F)c2)cnc1N | 80 | – |
| 480 | CCC(CC)NC(=O)c1nc(-c2cc(C)cc(C)c2)cnc1N | 173 | – |
| 820 | CCC(C)NC(=O)c1nc(-c2cccc(F)c2)cnc1N (configuration not stated) | 102 | – |
| 2900 | CCC(C)NC(=O)c1nc(-c2ccc(N)cc2)cnc1N (configuration not stated) | > 28.4 | – |
| > 10000 | CCC(C)NC(=O)c1nc(-c2cccc(C(C)=O)c2)cnc1N (configuration not stated) | – | – |
| 570 | CCC(C)NC(=O)c1nc(-c2cccc(Br)c2)cnc1N (configuration not stated) | 147 | – |
| 2700 | CCC(C)NC(=O)c1nc(-c2cccc(C#N)c2)cnc1N (configuration not stated) | > 30.5 | – |
| 220 | CCC(CC)NC(=O)c1nc(-c2ccc(F)c(Cl)c2)cnc1N | 190 | – |
| 680 | CCC(C)NC(=O)c1nc(-c2ccc(Cl)cc2)cnc1N (configuration not stated) | 122 | solubility kinetic [3]: 3.1 µg/mL (≈ 10.2 µM); logD [4]: 4.5; fraction unbound [5]: 0.03; solubility kinetic [6]: 1.6 µg/mL (≈ 5.25 µM); microsomal CLint at 0.5 µM [7]: 48 µL/min/mg; half-life [8]: 36 min |
| 1100 | CCC(C)NC(=O)c1nc(-c2ccccc2Cl)cnc1N (configuration not stated) | 76 | – |
| 2200 | CCC(C)NC(=O)c1nc(-c2ccc(Br)cc2)cnc1N (configuration not stated) | 38 | – |
| 4700 | CCC(C)NC(=O)c1nc(-c2ccc(C(C)=O)cc2)cnc1N (configuration not stated) | 8.8 | – |
| 500 | Cc1cc(Cl)cc(-c2cnc(N)c(C(=O)NC3CCCC3)n2)c1 | 170 | – |
| 1200 | CCC(C)NC(=O)c1nc(-c2ccccc2C)cnc1N (configuration not stated) | > 71 | – |

Second part, the compound before the results:

| Structure (SMILES) | EC50 [1] [nM] | selectivity ratio [2] | also measured |
| --- | --- | --- | --- |
| Nc1ncc(-c2ccccc2)nc1C(=O)NCCN1CCOCC1 | > 10000 | – | – |
| Nc1ncc(-c2ccccc2)nc1C(=O)N1CCOCC1 | > 10000 | – | – |
| Nc1ncc(-c2ccccc2)nc1C(=O)N1CCCCC1 | 4600 | > 18 | – |
| CCC(C)NC(=O)c1nc(-c2cccc([N+](=O)[O-])c2)cnc1N (configuration not stated) | 450 | 185 | – |
| CCC(C)NC(=O)c1nc(-c2ccccc2N)cnc1N (configuration not stated) | > 10000 | – | – |
| CCC(C)NC(=O)c1nc(-c2ccc([N+](=O)[O-])cc2)cnc1N (configuration not stated) | 4500 | > 18.5 | – |
| CCCCCNC(=O)c1nc(-c2ccccc2)cnc1N | 1700 | 50 | – |
| CCC(CC)NC(=O)c1nc(-c2ccccc2C#N)cnc1N | 170 | 488 | EC50 [9]: 15000 nM; IC50 at 70 h [10]: 10000 nM; EC50 [11]: 130 nM; EC50 [12]: > 10000 nM; EC50 [13]: 4800 nM; selectivity ratio [14]: 80 |
| Nc1ncc(-c2ccccc2)nc1C(=O)N1CCCC1 | 6100 | > 14 | – |
| Nc1ncc(-c2ccccc2)nc1C(=O)NCCc1ccccc1 | > 10000 | – | – |
| Nc1ncc(-c2ccc(F)c(Cl)c2)nc1C(=O)NC1CCCC1 | 110 | 190 | – |
| CNC(=O)c1nc(-c2ccccc2)cnc1N | > 10000 | – | – |
| CCC(C)NC(=O)c1nc(-c2ccccc2)cnc1N (configuration not stated) | 490 | > 263 | EC50 [9]: 19000 nM; IC50 at 70 h [10]: 18000 nM; EC50 [11]: 970 nM; EC50 [12]: > 10000 nM; EC50 [13]: 11000 nM; selectivity ratio [14]: 19 |
| Nc1ncc(-c2ccccc2)nc1C(=O)NCc1ccccc1 | 2600 | 32 | – |
| Nc1ncc(-c2cccc(Cl)c2)nc1C(=O)NC1CCCC1 | 240 | 340 | – |
| CC(C)NC(=O)c1nc(-c2ccccc2)cnc1N | 2600 | > 33 | – |
| CCC(C)NC(=O)c1nc(-c2ccccc2OC)cnc1N (configuration not stated) | 5400 | > 15.4 | – |

| Structure (SMILES) | EC50 [1] [nM] | selectivity ratio [2] | also measured |
| --- | --- | --- | --- |
| CCC(C)NC(=O)c1nc(-c2cccc(C)c2)cnc1N (configuration not stated) | 170 | > 495 | EC50 [9]: 25000 nM; IC50 at 70 h [10]: 43000 nM; EC50 [11]: 130 nM; EC50 [12]: > 10000 nM; EC50 [13]: 19000 nM; selectivity ratio [14]: 340 |
| CCC(C)NC(=O)c1nc(-c2ccccc2C(C)=O)cnc1N (configuration not stated) | 10000 | 7.9 | – |
| CCCC(C)NC(=O)c1nc(-c2ccccc2)cnc1N (configuration not stated) | 530 | > 156 | – |
| Nc1ncc(-c2ccccc2)nc1C(=O)NCCCCO | 7300 | > 11 | – |
| Nc1ncc(-c2ccccc2)nc1C(=O)NCCN1CCCC1 | > 10000 | – | – |
| Nc1ncc(-c2ccccc2)nc1C(=O)NCCO | > 10000 | – | – |
| CCC(C)NC(=O)c1nc(-c2ccccc2[N+](=O)[O-])cnc1N (configuration not stated) | 890 | 94 | – |
| CCC(C)NC(=O)c1nc(-c2ccccc2F)cnc1N (configuration not stated) | 750 | 111 | – |
| CC(C)(C)NC(=O)c1nc(-c2ccccc2)cnc1N | 3000 | > 14 | solubility kinetic [3]: < 1.6 µg/mL; logD [4]: 4.3; fraction unbound [5]: 0.015; solubility kinetic [6]: < 1.6 µg/mL; microsomal CLint at 0.5 µM [7]: 246 µL/min/mg; half-life [8]: 7 min |
| N#Cc1cc(F)ccc1-c1cnc(N)c(C(=O)NC2CCCC2)n1 | 57 | 1470 | – |
| Nc1ncc(-c2ccccc2)nc1C(=O)Nc1ccccc1 | > 10000 | – | – |
| Cc1cc(-c2cnc(N)c(C(=O)NC3CCCC3)n2)ccc1F | 24 | 3540 | – |
| Nc1ncc(-c2cccc(C(F)(F)F)c2)nc1C(=O)NC1CCCC1 | 150 | 560 | – |
| CCC(C)NC(=O)c1nc(-c2ccc(C#N)cc2)cnc1N (configuration not stated) | 2700 | > 30.4 | – |
| Nc1ncc(-c2ccc(F)cc2)nc1C(=O)NC1CCCC1 | 71 | 590 | – |
| CCC(C)NC(=O)c1nc(-c2ccccc2C#N)cnc1N (configuration not stated) | 350 | > 239 | EC50 [9]: 11000 nM; solubility kinetic [3]: 1.6 µg/mL (≈ 5.42 µM); IC50 at 70 h [10]: 18000 nM; EC50 [11]: 640 nM; EC50 [12]: > 10000 nM; logD [4]: 3.6; fraction unbound [5]: 0.05; EC50 [13]: 3600 nM; solubility kinetic [6]: 1.6 µg/mL (≈ 5.42 µM); microsomal CLint at 0.5 µM [7]: 122 µL/min/mg; half-life [8]: 14 min |
| CCC(C)NC(=O)c1nc(-c2ccccc2Br)cnc1N (configuration not stated) | > 10000 | – | – |
